From publication PMC5341405, “Lapachol, a compound targeting pyrimidine metabolism, ameliorates experimental autoimmune arthritis” (Arthritis Research & Therapy, 2017)

Experiments:
[1] = Tolerability and serum liver enzymes during CIA protocol; assay type: in vivo, DBA1/J mice
Procedure: Male DBA/1 J mice were injected i.d. at the base of the tail with 200 μg bovine type II collagen (CII; a gift from Dr. David D. Brand, University of Tennessee Health Science Center) emulsified in Freund’s complete adjuvant (CFA) on day 0. Mice were boosted i.d. with CII (200 μg emulsified in Freund’s incomplete adjuvant (IFA)) on day 21. Mice were monitored daily for signs of arthritis. Scores were assigned based on erythema, swelling, or ankylosis present in each paw on a scale of 0 to 3, giving a maximum score of 12 per mouse. After arthritis induction, mice were treated orally with LAP (3 mg/kg and 10 mg/kg) or LEF (3 mg/kg) or saline daily. The clinical score was addressed every day after collagen boost. All mice were euthanized for histologic assessment of the hind limbs 4 weeks after the boost.
Serum concentrations of aspartate aminotransferase (AST) or alanine aminotransferase (ALT) were measured using commercial kits according to the manufacturer’s instructions (ID Labs Biotechnology Inc., London, Canada).

human keratinocytes = test system: human keratinocytes; design: method as in PMID 10479319; details: in vitro; cited from earlier work
human CD4 T cells = experiment: Proliferation assay of human CD4 T cells (dye dilution, flow cytometry); assay type: cell-based
Excerpt: Human CD4 T cells were purified from the whole blood of healthy volunteers. Briefly, peripheral blood mononuclear cells (PBMCs) were isolated by Percoll gradient (Sigma-Aldrich, St. Louis, MO, USA). CD4 T cells were isolated from PBMCs using Isolation Kit (Miltenyi Biotec, Bergisch Gladbach, Germany). For murine CD4 T cells, lymph nodes from naive C57BL/6 male mice were harvested, and CD4 T cells were purified using Isolation Kit (Miltenyi Biotec, Bergisch Gladbach, Germany) according to the manufacturer’s recommendations.
A total of 1 × 10^5 CD4 T cells were labeled with 1 μM Dye Efluor® 670 (eBioscience, San Diego, CA, USA) for 15 min at 37 °C and cultured in RPMI-1640 10% FBS for 4 days in a 96-well U-bottom plate (Falcon, Franklin Lakes, New Jersey, USA) with the LAP salt diluted in RPMI-1640 (10, 30, and 100 μM), LEF diluted in RPMI-1640 (10, 30, and 100 μM; Arava®, Sanofi, France) and/or uridine (30, 100, and 300 μM; Sigma-Aldrich, St. Louis, MO, USA) in the presence of anti-CD3 (3 μg/ml) and anti-CD28 (1.5 μg/ml). The proliferation of CD4 T cells was determined by dye dilution in flow cytometry analysis. The results were expressed as the percentage of suppression using the following formula: [proliferation of CD4 T cells only – (proliferation of T CD4 cells with LEF or LAP)/proliferation of CD4 T cells only] × 100.

CC(C)=CCC1=C(O)C(=O)c2ccccc2C1=O [LAP, 2-hydroxy-3-(3methyl-2-butenyl)-1,4-naphthoquinone]
serum levels of ALT or AST ([1]; 3 mg/kg and 10 mg/kg orally daily, CIA protocol, 4 wk after boost): did not alter the serum levels of ALT or AST | tolerability (general symptoms of toxicity: piloerection, diarrhea, weight loss, prostration) ([1]; 3 mg/kg and 10 mg/kg orally once a day for 4 weeks, CIA mice): well tolerated without apparent side effects | proliferation of human keratinocytes (human keratinocytes): can reduce proliferation of the human keratinocytes | effect on proliferation of human CD4 T cells (human CD4 T cells; 10, 30, and 100 μM, 4 days, anti-CD3/CD28): dose-dependent inhibition of human T-cell proliferation | suppression of proliferation compared with LEF (human CD4 T cells; human CD4 T cells, same equivalent concentrations): greater ability to suppress the proliferation | antiproliferative effect in the presence of uridine (human CD4 T cells; human CD4 T cells, uridine 30, 100, and 300 μM): uridine was able to reverse the antiproliferative effect of LAP in a dose-dependent manner
